One experiment has as its target 5-HT1A (Rattus norvegicus (Rat), UniProt P19327). The experiment in a line: 5-HT1A receptor binding assay (3H-8-OH-DPAT). To be noted: rat cortex membrane, 3H-8-OH-DPAT. How it is done:
Rats were decapitated. […] Incubation at 37° C. was conducted for 10 min. […] Centrifugation was conducted and repeated 3 times.
(§1) Materials for the Receptor Binding Assay

A further experiment has as its target 5-HT7 receptor (Rattus norvegicus (Rat), UniProt P32305). The experiment in a line: 5-HT7 receptor binding assay ([3H]-5-CT). To be noted: rat hypothalamus membrane, [3H]-5-CT. How it is done: Adult SD rats were decapitated. […] Centrifugation was conducted (repeated 3 times).
as §1

For the next experiment, the target named is Histamine H1 receptor (Cavia porcellus (Guinea pig), UniProt P31389). Put plainly: Histamine H1 receptor binding assay (3H-pyrilamine). To be noted: guinea pig cerebellum membrane, 3H-pyrilamine. How it is done:
Preparation of Histamine H1 Receptor Membrane
Guinea pigs were decapitated. […] Vortex mixer was used for blending. Centrifugation was conducted at 48000 g, 4° C. for 10 min. The supernatant was discarded to give pellets, and buffer was added again for washing. Centrifugation was conducted and repeated 3 times.
as §1
(2) 100 μL of membrane preparation was added into each reaction tube.

A further experiment deals with D2 (Rattus norvegicus (Rat), UniProt P61169). Put plainly: D2 receptor binding assay (3H-Spiperone).
Another experiment deals with 5-HT2A (Rattus norvegicus (Rat), UniProt P14842). Put plainly: 5-HT2A receptor binding assay ([3H]-Ketanserin).
Setting [1] is: read-out: Ki (nM) D2, rat striatum membrane, 3H-Spiperone.
Setting [2] is: read-out: Ki (nM) 5-HT2A, rat cortex membrane, [3H]-Ketanserin.

SMILES strings stand for the structures. Like-named read-outs stand apart in the source and are kept apart here.

Sequence of D2 (P61169 whole entry): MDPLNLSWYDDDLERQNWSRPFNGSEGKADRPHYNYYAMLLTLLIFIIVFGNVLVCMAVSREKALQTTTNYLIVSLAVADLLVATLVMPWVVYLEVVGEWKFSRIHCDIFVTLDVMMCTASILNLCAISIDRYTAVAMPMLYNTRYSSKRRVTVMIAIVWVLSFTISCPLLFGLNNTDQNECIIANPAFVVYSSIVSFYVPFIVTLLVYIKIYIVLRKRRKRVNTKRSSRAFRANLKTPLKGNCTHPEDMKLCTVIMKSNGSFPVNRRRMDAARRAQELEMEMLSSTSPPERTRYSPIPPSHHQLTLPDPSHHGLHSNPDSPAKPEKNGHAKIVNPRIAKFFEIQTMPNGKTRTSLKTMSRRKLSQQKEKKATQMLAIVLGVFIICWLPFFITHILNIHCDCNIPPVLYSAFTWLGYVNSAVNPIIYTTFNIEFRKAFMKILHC
Sequence of 5-HT2A (P14842 whole entry): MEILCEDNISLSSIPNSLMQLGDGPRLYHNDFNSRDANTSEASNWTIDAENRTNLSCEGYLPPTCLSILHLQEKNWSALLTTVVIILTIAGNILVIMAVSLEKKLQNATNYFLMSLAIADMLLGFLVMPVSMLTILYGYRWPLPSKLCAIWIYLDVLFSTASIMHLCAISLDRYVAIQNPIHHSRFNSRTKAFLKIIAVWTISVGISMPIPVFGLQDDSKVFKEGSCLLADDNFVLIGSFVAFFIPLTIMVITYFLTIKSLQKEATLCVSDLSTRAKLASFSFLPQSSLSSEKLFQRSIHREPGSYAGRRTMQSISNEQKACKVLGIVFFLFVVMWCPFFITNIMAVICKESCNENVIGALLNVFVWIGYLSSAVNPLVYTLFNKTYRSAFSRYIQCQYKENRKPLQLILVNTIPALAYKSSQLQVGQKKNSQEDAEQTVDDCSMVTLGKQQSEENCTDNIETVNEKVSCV
Sequence of Histamine H1 receptor (P31389 whole entry): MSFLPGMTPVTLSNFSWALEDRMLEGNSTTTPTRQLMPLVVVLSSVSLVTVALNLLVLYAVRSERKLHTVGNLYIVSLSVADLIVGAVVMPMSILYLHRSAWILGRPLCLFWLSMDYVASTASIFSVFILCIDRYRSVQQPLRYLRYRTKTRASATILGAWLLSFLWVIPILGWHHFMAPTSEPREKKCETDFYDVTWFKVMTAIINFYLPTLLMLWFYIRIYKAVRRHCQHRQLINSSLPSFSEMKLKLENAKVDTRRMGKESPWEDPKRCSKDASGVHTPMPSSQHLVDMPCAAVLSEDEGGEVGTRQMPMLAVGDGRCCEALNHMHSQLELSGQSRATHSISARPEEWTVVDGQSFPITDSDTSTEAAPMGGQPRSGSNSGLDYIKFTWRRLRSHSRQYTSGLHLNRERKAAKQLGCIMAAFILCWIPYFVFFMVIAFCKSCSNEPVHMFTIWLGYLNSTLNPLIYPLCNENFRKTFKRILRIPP
Sequence of 5-HT1A (P19327 whole entry): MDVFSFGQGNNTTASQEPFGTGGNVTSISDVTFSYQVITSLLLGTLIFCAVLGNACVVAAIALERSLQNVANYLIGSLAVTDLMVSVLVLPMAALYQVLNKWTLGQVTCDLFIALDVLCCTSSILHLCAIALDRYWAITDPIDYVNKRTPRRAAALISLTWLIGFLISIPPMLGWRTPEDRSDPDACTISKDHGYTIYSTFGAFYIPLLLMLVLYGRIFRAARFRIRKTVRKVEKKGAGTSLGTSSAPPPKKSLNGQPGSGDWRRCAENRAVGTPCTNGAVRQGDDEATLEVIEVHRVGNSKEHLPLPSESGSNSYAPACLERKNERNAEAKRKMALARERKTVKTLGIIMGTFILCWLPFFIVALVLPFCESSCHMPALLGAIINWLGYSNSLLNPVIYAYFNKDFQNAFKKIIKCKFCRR
Sequence of 5-HT7 receptor (P32305 whole entry): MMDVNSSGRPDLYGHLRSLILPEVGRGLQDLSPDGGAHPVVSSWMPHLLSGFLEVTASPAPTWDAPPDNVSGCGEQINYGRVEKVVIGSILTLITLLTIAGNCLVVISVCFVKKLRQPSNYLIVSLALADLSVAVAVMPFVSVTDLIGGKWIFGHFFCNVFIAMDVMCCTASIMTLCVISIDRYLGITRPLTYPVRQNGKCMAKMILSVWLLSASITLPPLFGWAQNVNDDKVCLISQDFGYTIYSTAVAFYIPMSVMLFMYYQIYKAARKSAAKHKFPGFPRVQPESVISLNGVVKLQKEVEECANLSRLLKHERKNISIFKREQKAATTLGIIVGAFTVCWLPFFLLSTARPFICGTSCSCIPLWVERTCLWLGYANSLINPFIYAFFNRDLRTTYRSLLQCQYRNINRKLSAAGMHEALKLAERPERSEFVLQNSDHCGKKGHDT
Experimental for 5-HT2A: Rats were decapitated. Cortex of brain was rapidly taken on ice, and 3 ml of buffer (0.05 M Tris-HCl buffer: 6.05 g of Tris was dissolved in 1000 ml of double-distilled water, and concentrated HCl was used to adjust to pH 7.5) was added, homogenization was conducted, and then 5 ml of buffer was added. Incubation was conducted at 37° C. for 10 min, the weight of the tubes were adjusted using a balance after incubation. Centrifugation was conducted at 12000 rpm, 4° C. for 20 min, the supernatant was discarded, and 3 ml of buffer was added. Vortex mixer was used for blending, and then 5 ml of buffer was added. Centrifugation was conducted (repeated 3 times). After the centrifugation, the supernatant was discarded, and the pellets were stored at −80° C. for future use.
(1) The prepared membrane was applied with buffer, and homogenizer was used for evenly dispersing. 15 tubes were mixed into a 100 ml container, and appropriate amount of buffer was added to give 50 ml of membrane suspension, which was reserved for future use.
(§2) (2) 100 μL of membrane preparation and 100 μL of buffer were added into each reaction tube.
(3) 100 μL of buffer was added into the total binding tube (TB), 100 μL of Methysergide (final concentration 10^−5M) was added into the nonspecific binding tube (NB), 100 μL of the test compound (final concentration 10^−5M) was added into the specific binding tube (SB) of each test compound.
(5) Each of the reaction tubes was incubated at 37° C. for 15 min. After the reaction was completed, the bound ligands were rapidly filtered under reduced pressure, and sufficiently washed with ice-chilled assay buffer. The filter was taken out and put into a 3 ml scintillation vial, and 2 ml of toluene scintillation cocktail was added and blended.
(6) The scintillation vial were put into Liquid Scintillation Counter for counting. Inhibition rate(I%)=(Total binding tube cpm−compound cpm)/(Total binding tube cpm−nonspecific binding tube cpm)×100%
Experimental for D2: Rats were decapitated. Striatum of brain was rapidly taken on ice, 3 ml of buffer (0.05 M Tris-HCl buffer, containing NaCl 120 mM, KCl 5 mM, MgCl2 1 mM, CaCl2 1 mM) was added, homogenization was conducted, and then 5 ml of buffer was then added. The weight of the homogenized tubes were adjusted using a balance, and centrifugation was conducted. The supernatant was discarded, and 3 ml of buffer was added. Vortex mixer was used for blending, and then 5 ml of buffer was added. Centrifugation was conducted and repeated 3 times. The supernatant was discarded after centrifugation was completed, and the pellets were stored at −80° C. for future use.
Beckman LS-6500 Multi-function Liquid Scintillation Counter was used.
(1) The prepared membrane was applied with appropriate amount of buffer, and homogenizer was used for evenly dispersing. 15 tubes were mixed into a 100 ml container, and appropriate amount of buffer was added to give 50 ml of membrane suspension, which was reserved for future use.
as §2
(3) 100 μL of buffer was added into the total binding tube (TB), 100 μL of Butaclamol (final concentration 10^−5M) was added into the nonspecific binding tube (NB), 100 μL of the test compound (final concentration 10^−5M) was added into the specific binding tube (SB) of each test compound.
(5) Each of the reaction tubes was incubated at 37° C. for 20 min. After the reaction was completed, the bound ligands were rapidly filtered under reduced pressure, and sufficiently washed with ice-chilled assay buffer. The filter was taken out and put into a 3 ml scintillation vial, and 2 ml of toluene scintillation cocktail was added and blended.
(6) The scintillation vials were put into Liquid Scintillation Counter for counting. Inhibition rate(I%)=(Total binding tube cpm−compound cpm)/(Total binding tube cpm−nonspecific binding tube cpm)×100%
Each assay for the compounds was conducted in duplicate for two individual tests.

One may read the Ki as a dissociation constant, usually derived from enzyme kinetics or from competition with a known ligand. Regarding `O=C1NCCc2ccc(OCCCN3CCN(c4cccc(Cl)c4Cl)CC3)cc21` [A, reference compound], the Ki at 5-HT1A turned out to be 14.3 nM; on 5-HT7 receptor, 254 nM; at Histamine H1 receptor, 89.6 nM; at D2 (setting [1]) it was 21.2 nM; at 5-HT2A (setting [2]) it was 29.2 nM.
Regarding `CN1CCc2ccc(OCCCN3CCN(c4cccc5sccc45)CC3)cc2C1=O` [B, reference compound], the Ki on 5-HT7 receptor is 579 nM; on Histamine H1 receptor, 139 nM.
Take `O=C1NCCc2ccc(OCCCN3CCN(c4ccc5sccc5c4)CC3)cc21` [C, reference compound]: the Ki was determined as 500 nM at 5-HT7 receptor, 138 nM on Histamine H1 receptor and 35.2 nM at D2.
Consider `CN1CCc2ccc(OCCCCN3CCC(c4noc5cc(F)ccc45)CC3)cc2C1=O` [Compound 1, 7-(4-(4-(6-fluorobenzo[d]isoxazol-3-yl)piperidin-1-yl)butoxy)-2-methyl-3,4-dihydroisoquinolin-1(2H)-one], for which the Ki came out at 15.8 nM at 5-HT1A, 12.5 nM at 5-HT7 receptor, 12.5 nM on D2 (setting [1]) and 18.9 nM on 5-HT2A (setting [2]).
For the compound `COc1ccccc1N1CCN(CCCCOc2ccc3c(c2)C(=O)N(C)CC3)CC1` [Compound 2, 7-(4-(4-(2-methoxyphenyl)piperazin-1-yl)butoxy)-2-methyl-3,4-dihydroisoquinolin-1(2H)-one], the inhibition constant Ki at 5-HT1A worked out at 11.3 nM; at D2 (setting [1]), 120 nM; at 5-HT2A (setting [2]), 36.8 nM.
Consider `CN1CCc2ccc(OCCCCN3CCN(c4cccc(C(F)(F)F)c4)CC3)cc2C1=O` [Compound 3, 2-methyl-7-(4-(4-(3-(trifluoromethyl)phenyl)piperazin-1-yl)butoxy)-3,4-dihydroisoquinolin-1 (2H)-one], for which the Ki on 5-HT1A was determined as 11.8 nM; at 5-HT7 receptor it was 23.6 nM; at D2 (setting [1]), 17.2 nM; at 5-HT2A (setting [2]), 9.9 nM.
Consider `CN1CCc2ccc(OCC(O)CN3CCC(c4noc5cc(F)ccc45)CC3)cc2C1=O` (stereo not drawn) [Compound 4, 7-(3-(4-(6-fluorobenzo[d]isoxazol-3-yl)piperidin-1-yl)-2-hydroxypropoxy)-2-methyl-3,4-dihydroisoquinolin-1(2H)-one], for which the Ki on 5-HT1A is 3.9 nM; at 5-HT7 receptor, 10.2 nM; on Histamine H1 receptor, > 2000 nM; at D2 (setting [1]), 15.1 nM; at 5-HT2A (setting [2]), 15.9 nM.
As for `CN1CCc2ccc(OCCCN3CCN(c4cccc5ccccc45)CC3)cc2C1=O` [Compound 6, 2-methyl-7-(3-(4-(naphthalen-1-yl)piperazin-1-yl)propoxy)-3,4-dihydroisoquinolin-1(2H)-one], the Ki at 5-HT1A turned out to be 46.6 nM; at D2 (setting [1]), 134 nM; at 5-HT2A (setting [2]), 57 nM.
Turning to `CCN1CCc2ccc(OCCCN3CCC(c4noc5cc(F)ccc45)CC3)cc2C1=O` [Compound 7, 7-(3-(4-(6-fluorobenzo[d]isoxazol-3-yl)piperidin-1-yl)propoxy)-2-ethyl-3,4-dihydroisoquinolin-1(2H)-one], the Ki was 1.9 nM at 5-HT1A; 12.7 nM on 5-HT7 receptor; > 2000 nM on Histamine H1 receptor; 13.1 nM on D2 (setting [1]); 0.9 nM on 5-HT2A (setting [2]).
With `Cc1cc(OCCCN2CCC(c3noc4cc(F)ccc34)CC2)cc2c1CCN(C)C2=O` [Compound 8, 7-(3-(4-(6-fluorobenzo[d]isoxazol-3-yl)piperidin-1-yl)propoxy)-2,5-dimethyl-3,4-dihydroisoquinolin-1(2H)-one], the Ki is 2.8 nM on 5-HT1A; 6.7 nM on 5-HT7 receptor; > 2000 nM on Histamine H1 receptor; 8.7 nM at D2 (setting [1]); 2.4 nM at 5-HT2A (setting [2]).
Turning to `CN1CCc2c(F)cc(OCCCN3CCC(c4noc5cc(F)ccc45)CC3)cc2C1=O` [Compound 9, 5-fluoro-7-(3-(4-(6-fluorobenzo[d]isoxazol-3-yl)piperidin-1-yl)propoxy)-2-methyl-3,4-dihydroisoquinolin-1(2H)-one], the Ki on 5-HT1A was 3.9 nM; on 5-HT7 receptor, 7.9 nM; on Histamine H1 receptor it was > 2000 nM; at D2 (setting [1]), 3.1 nM; on 5-HT2A (setting [2]), 3.7 nM.
For the compound `CC1CN(C)C(=O)c2cc(OCCCN3CCC(c4noc5cc(F)ccc45)CC3)ccc21` (stereo not drawn) [Compound 10, 7-(3-(4-(6-fluorobenzo[d]isoxazol-3-yl)piperidin-1-yl)propoxy)-2,4-dimethyl-3,4-dihydroisoquinolin-1(2H)-one], the Ki is 4.6 nM at 5-HT1A; 8.4 nM at 5-HT7 receptor; > 2000 nM at Histamine H1 receptor; 5.8 nM at D2 (setting [1]); 12.9 nM on 5-HT2A (setting [2]).
For `CN1COc2ccc(OCCCN3CCC(c4noc5cc(F)ccc45)CC3)cc2C1=O` [Compound 11, 6-(3-(4-(6-fluorobenzo[d]isoxazol-3-yl)piperidin-1-yl)propoxy)-3-methyl-2H-benzo[e][1,3]oxazin-4(3H)-one], in that order: 24.6 nM, 11.2 nM, > 2000 nM, 13.9 nM and 3.6 nM.
For the compound `CN1CCc2ccc(OCCCN3CCN(c4ccc5c(c4)OCO5)CC3)cc2C1=O` [Compound 13, 7-(3-(4-(benzo[d][1,3]dioxol-5-yl)piperazin-1-yl)propoxy)-2-methyl-3,4-dihydroisoquinolin-1 (2H)-one], the Ki was 12.8 nM on 5-HT1A, 235 nM at D2 (setting [1]) and 3.6 nM at 5-HT2A (setting [2]).
For `CN1CCc2ccc(OCCCN3CCN(c4ccc5ccccc5n4)CC3)cc2C1=O` [Compound 15, 7-(3-(4-(quinolin-2-yl)piperazin-1-yl)propoxy)-2-methyl-3,4-dihydroisoquinolin-1(2H)-one], in that order: 157 nM, 1990 nM and 468 nM.
Taken in the same sequence, the figures for `CN1CCc2ccc(OCCCN3CCN(c4ccccc4)CC3)cc2C1=O` [Compound 16, 2-methyl-7-(3-(4-phenylpiperazin-1-yl)propoxy)-3,4-dihydroisoquinolin-1(2H)-one] were 569 nM, > 2000 nM and 372 nM.
As to `CN1CCc2ccc(OCCCN3CCN(c4ccc(Cl)cc4)CC3)cc2C1=O` [Compound 17, 7-(3-(4-(4-chlorophenyl)piperazin-1-yl)propoxy)-2-methyl-3,4-dihydroisoquinolin-1(2H)-one], the Ki at 5-HT1A, on D2 (setting [1]) and at 5-HT2A (setting [2]) was > 2000 nM each time.
In the case of `CN1CCc2ccc(OCCCN3CCN(c4ccccc4Cl)CC3)cc2C1=O` [Compound 18, 7-(3-(4-(2-chlorophenyl)piperazin-1-yl)propoxy)-2-methyl-3,4-dihydroisoquinolin-1(2H)-one], the inhibitory constant (Ki) on 5-HT1A, at D2 (setting [1]) and on 5-HT2A (setting [2]) was > 2000 nM each time.
With `CN1CCc2ccc(OCCCN3CCN(c4ccc(F)cc4)CC3)cc2C1=O` [Compound 19, 7-(3-(4-(4-fluorophenyl)piperazin-1-yl)propoxy)-2-methyl-3,4-dihydroisoquinolin-1(2H)-one], the figures for the Ki at 5-HT1A, at D2 (setting [1]) and on 5-HT2A (setting [2]) were 746 nM, 1650 nM and 688 nM, respectively.
Turning to `COc1ccc(N2CCN(CCCOc3ccc4c(c3)C(=O)N(C)CC4)CC2)cc1` [Compound 21, 7-(3-(4-(4-methoxyphenyl)piperazin-1-yl)propoxy)-2-methyl-3,4-dihydroisoquinolin-1(2H)-one], the inhibition constant Ki on 5-HT1A, on D2 (setting [1]) and on 5-HT2A (setting [2]) was > 2000 nM throughout.
In the case of `CN1CCc2ccc(OCCCN3CCN(c4ccccn4)CC3)cc2C1=O` [Compound 23, 2-methyl-7-(3-(4-(pyridin-2-yl)piperazin-1-yl)propoxy)-3,4-dihydroisoquinolin-1(2H)-one], the Ki is > 2000 nM on 5-HT1A, > 2000 nM at D2 (setting [1]) and 369 nM on 5-HT2A (setting [2]).
With `Cn1cnc2ccc(OCCCCN3CCN(Cc4ccccc4)CC3)cc2c1=O` [Compound 26, 6-(4-(4-benzylpiperazin-1-yl)butoxy)-3-methylquinazolin-4(3H)-one], the Ki on 5-HT1A was 56.9 nM; on D2 (setting [1]), > 2000 nM; at 5-HT2A (setting [2]) it was > 2000 nM.
For the compound `Cn1cnc2ccc(OCCCCN3CCc4ccccc4C3)cc2c1=O` [Compound 27, 6-(4-(3,4-dihydroisoquinolin-2(1H)-yl)butoxy)-3-methylquinazolin-4(3H)-one], the Ki at 5-HT1A amounted to 57.9 nM; on D2 (setting [1]) it was 500 nM; on 5-HT2A (setting [2]), 66.2 nM.
On to `Cn1cnc2ccc(OCCCCN3CCN(c4ccc(F)cc4)CC3)cc2c1=O` [Compound 29, 6-(4-(4-(4-fluorophenyl)piperazin-1-yl)butoxy)-3-methylquinazolin-4(3H)-one], for which the inhibitory constant (Ki) is 259 nM on 5-HT1A, > 2000 nM at D2 (setting [1]) and 347 nM on 5-HT2A (setting [2]).
In the case of `Cn1cnc2ccc(OCCCCN3CCN(c4ccccn4)CC3)cc2c1=O` [Compound 30, 3-methyl-6-(4-(4-(pyridin-2-yl)piperazin-1-yl)butoxy)quinazolin-4(3H)-one], the Ki on 5-HT1A, at D2 and at 5-HT2A was > 2000 nM each time.
With `Cn1c(=O)c2cc(OCCCN3CCN(c4cccc5sccc45)CC3)ccc2n(C)c1=O` [D, reference compound], the Ki was determined as 606 nM on 5-HT7 receptor, 154 nM on Histamine H1 receptor and 25.5 nM on D2 (setting [1]).
